Data taken from patent US11638427B2, “Methods and compositions for altering secondary metabolites in plants” (Impello Biosciences, Inc, priority 2020, dated 2023).
Several values for one entry are separate records, joined by “and”; a condition that tells them apart may be missing. Equal entries are not always repeated.

Test system: CBDRx Cherry hemp clones
Assay: Foliar spray of MS, MDJ and MS+MDJ on hemp clones: biomass, cannabinoid and terpene analysis
Assay type: in vivo, Cannabis spp.
Design: CBDA / CBD / THCA / Total CBG / Total cannabinoids: unit not given here
Details: for plants died before the end of the experiment: four plants per treatment group
Experimental: Methyl salicylate (MS) is an antagonistic compound to the jasmonates. To investigate the effect of MS alone and in conjunction with MDJ, MS (CAS No.: 119-36-8), MDJ, and the combination (MS+MDJ) were applied by foliar spray to CBDRx Cherry hemp clones once per week during both vegetative and flowering phases. Plants were transplanted into 1-gallon pots with Red's soil and put into vegetative light cycle (18L/6D). […] Plants were grown under a total of 12 Boost (Thrive Agritech, NY) 130-watt LED lights set to 18L: 6D photoperiod during the vegetative phase (2 weeks) and this was followed by a 12L: 12D photoperiod during the flowering phase (7 weeks), using the same lighting fixtures. Throughout the nine weeks, all plants were watered when needed with Jack's nutrients.
MS or MDJ treatments were applied at the following concentrations: [1 mM], [4.25 mM], [7.5 mM] and [10 mM]. Each concentration was prepared from a one molar stock solution diluted with RO water and TWEEN®-20 (1M stock) was added. Each plant was sprayed till dripping, which was approximately 50-75 ml. To apply the combination of the two biochemicals, MS and MDJ were sprayed separately but simultaneously, to ensure each compound was applied evenly onto the plant. Each compound was applied using a SPRAYMASTER Chemical Sprayer (King of Prussia, Pa.).
Plants were harvested two months after transplant. After harvesting, plants were air dried at room temperature for two weeks. Once plants were sufficiently dry, above ground dry weights were recorded and dried flower samples were collected and sent to a third-party lab for terpene and cannabinoid analysis. Two plants (#3 and #4) in treatment group MDJ [7.5] mM, two plants (#3 and #4) in MS [4.25] mM, one plant (#4) in MS [7.5], and one plant (#4) in MDJ [10] died before the end of the experiment.

[1] = 1 mM foliar spray, Avg. of group
[2] = 1 mM foliar spray, individual plant
[3] = 4.25 mM foliar spray, Avg. of group
[4] = 4.25 mM foliar spray, individual plant
[5] = 7.5 mM foliar spray, Avg. of group
[6] = 7.5 mM foliar spray, individual plant
[7] = 10 mM foliar spray, Avg. of group
[8] = 10 mM foliar spray, individual plant

## COC(=O)c1ccccc1O [MS, Methyl salicylate]
[1]
  Alpha-bisabolol: 0.08263 % wt/wt
  Alpha-humulene: 0.07955 % wt/wt
  Beta-caryophyllene: 0.2069 % wt/wt
  CBCA: 0.715
  CBD: 0.105
  CBDA: 13.675
  CBGA: 0.365
  Limonene: 0.1101 % wt/wt
  THCA: 0.6
  Total CBD: 12.1025
  Total CBG: 0.32
  Total cannabinoids: 15.46
  Total d9THC: 0.525
  alpha-pinene: 0 % wt/wt
  beta-myrcene: 0.8188 % wt/wt
  beta-pinene: 0.02077 % wt/wt
  total terpenes: 1.435 % wt/wt
[2]
  Alpha-bisabolol: 0.0925 % wt/wt and 0.1053 % wt/wt and 0.1236 % wt/wt and 0.00912 % wt/wt
  Alpha-humulene: 0.076 % wt/wt and 0.0724 % wt/wt and 0.0922 % wt/wt and 0.0776 % wt/wt
  Beta-caryophyllene: 0.1974 % wt/wt and 0.1911 % wt/wt and 0.243 % wt/wt and 0.1959 % wt/wt
  CBCA: 0.82 and 0.64 and 0.67 and 0.73
  CBD: 0.13 and 0 and 0.12 and 0.17
  CBDA: 15.19 and 12.85 and 13.24 and 13.42
  CBGA: 0.42 and 0.34 and 0.32 and 0.38
  Limonene: 0.1096 % wt/wt and 0.11 % wt/wt and 0.1101 % wt/wt and 0.1106 % wt/wt
  THCA: 0.66 and 0.56 and 0.58 and 0.6
  Total CBD: 13.45 and 11.27 and 11.74 and 11.95
  Total CBG: 0.37 and 0.3 and 0.28 and 0.33
  Total cannabinoids: 17.22 and 14.39 and 14.93 and 15.3
  Total d9THC: 0.58 and 0.49 and 0.51 and 0.52
  alpha-pinene: 0 % wt/wt
  beta-myrcene: 0.7692 % wt/wt and 0.8926 % wt/wt and 0.845 % wt/wt and 0.7684 % wt/wt
  beta-pinene: 0.0215 % wt/wt and 0.0201 % wt/wt and 0.021 % wt/wt and 0.0205 % wt/wt
  total terpenes: 1.36 % wt/wt (2×) and 1.48 % wt/wt and 1.54 % wt/wt
[3]
  Alpha-bisabolol: 0.1143 % wt/wt
  Alpha-humulene: 0.0794 % wt/wt
  Beta-caryophyllene: 0.1996 % wt/wt
  CBCA: 0.61
  CBD: 0.16
  CBDA: 11.8
  CBGA: 0.275
  Limonene: 0.1 % wt/wt
  THCA: 0.51
  Total CBD: 10.505
  Total CBG: 0.24
  Total cannabinoids: 13.355
  Total d9THC: 0.45
  alpha-pinene: 0 % wt/wt
  beta-myrcene: 0.7751 % wt/wt
  beta-pinene: 0.0197 % wt/wt
  total terpenes: 1.38 % wt/wt
4.25 mM foliar spray
  plants died before the end of the experiment: two plants
[4]
  Alpha-bisabolol: 0.1185 % wt/wt and 0.1101 % wt/wt
  Alpha-humulene: 0.0819 % wt/wt and 0.0769 % wt/wt
  Beta-caryophyllene: 0.2091 % wt/wt and 0.19 % wt/wt
  CBCA: 0.61
  CBD: 0.15 and 0.17
  CBDA: 11.88 and 11.72
  CBGA: 0.27 and 0.28
  Limonene: 0.1042 % wt/wt and 0.0958 % wt/wt
  THCA: 0.52 and 0.5
  Total CBD: 10.57 and 10.44
  Total CBG: 0.24
  Total cannabinoids: 13.43 and 13.28
  Total d9THC: 0.46 and 0.44
  alpha-pinene: 0 % wt/wt
  beta-myrcene: 0.8061 % wt/wt and 0.744 % wt/wt
  beta-pinene: 0.0209 % wt/wt and 0.0185 % wt/wt
  total terpenes: 1.43 % wt/wt and 1.33 % wt/wt
[5]
  Alpha-bisabolol: 0.1235 % wt/wt
  Alpha-humulene: 0.09093 % wt/wt
  Beta-caryophyllene: 0.23 % wt/wt
  CBCA: 0.66
  CBD: 0.1833
  CBDA: 12.833
  CBGA: 0.41
  Limonene: 0.09533 % wt/wt
  THCA: 0.57
  Total CBD: 11.44
  Total CBG: 0.356
  Total cannabinoids: 14.656
  Total d9THC: 0.5
  alpha-pinene: 0 % wt/wt
  beta-myrcene: 0.7014 % wt/wt
  beta-pinene: 0 % wt/wt
  total terpenes: 1.343 % wt/wt
7.5 mM foliar spray
  plants died before the end of the experiment: one plant
[6]
  Alpha-bisabolol: 0.1154 % wt/wt and 0.1201 % wt/wt and 0.1349 % wt/wt
  Alpha-humulene: 0.0878 % wt/wt and 0.083 % wt/wt and 0.102 % wt/wt
  Beta-caryophyllene: 0.2204 % wt/wt and 0.2101 % wt/wt and 0.2595 % wt/wt
  CBCA: 0.68 (2×) and 0.62
  CBD: 0.3 and 0.1 and 0.15
  CBDA: 12.97 and 12.23 and 13.3
  CBGA: 0.4 and 0.37 and 0.46
  Limonene: 0.0902 % wt/wt and 0.0968 % wt/wt and 0.099 % wt/wt
  THCA: 0.57 and 0.55 and 0.59
  Total CBD: 11.68 and 10.83 and 11.81
  Total CBG: 0.35 and 0.32 and 0.4
  Total cannabinoids: 14.92 and 13.87 and 15.18
  Total d9THC: 0.5 and 0.48 and 0.52
  alpha-pinene: 0 % wt/wt
  beta-myrcene: 0.6564 % wt/wt and 0.7151 % wt/wt and 0.7328 % wt/wt
  beta-pinene: 0 % wt/wt
  total terpenes: 1.27 % wt/wt and 1.32 % wt/wt and 1.44 % wt/wt
[7]
  Alpha-bisabolol: 0.109 % wt/wt
  Alpha-humulene: 0.07612 % wt/wt
  Beta-caryophyllene: 0.1899 % wt/wt
  CBCA: 0.73
  CBD: 0.155
  CBDA: 14.5975
  CBGA: 0.4775
  Limonene: 0.1418 % wt/wt
  THCA: 0.625
  Total CBD: 12.96
  Total CBG: 0.42
  Total cannabinoids: 16.585
  Total d9THC: 0.55
  alpha-pinene: 0.01702 % wt/wt
  beta-myrcene: 1.084 % wt/wt
  beta-pinene: 0.02447 % wt/wt
  total terpenes: 1.725 % wt/wt
[8]
  Alpha-bisabolol: 0.1326 % wt/wt and 0.0981 % wt/wt and 0.1139 % wt/wt and 0.0915 % wt/wt
  Alpha-humulene: 0.0912 % wt/wt and 0.0723 % wt/wt and 0.0736 % wt/wt and 0.0674 % wt/wt
  Beta-caryophyllene: 0.2182 % wt/wt and 0.1794 % wt/wt and 0.192 % wt/wt and 0.1699 % wt/wt
  CBCA: 0.71 and 0.73 and 0.72 and 0.76
  CBD: 0.17 and 0.12 and 0.33 and 0
  CBDA: 15.33 and 14.37 and 13.89 and 14.8
  CBGA: 0.5 (2×) and 0.46 and 0.45
  Limonene: 0.213 % wt/wt and 0.1272 % wt/wt and 0.113 % wt/wt and 0.1141 % wt/wt
  THCA: 0.65 and 0.63 (2×) and 0.59
  Total CBD: 13.61 and 12.73 and 12.52 and 12.98
  Total CBG: 0.44 (2×) and 0.4 (2×)
  Total cannabinoids: 17.36 and 16.31 and 15.98 and 16.69
  Total d9THC: 0.57 and 0.55 and 0.52 and 0.56
  alpha-pinene: 0.0398 % wt/wt and 0.0283 % wt/wt and 0 % wt/wt (2×)
  beta-myrcene: 1.6091 % wt/wt and 0.9913 % wt/wt and 0.8332 % wt/wt and 0.9015 % wt/wt
  beta-pinene: 0.0299 % wt/wt and 0.023 % wt/wt and 0.0257 % wt/wt and 0.0193 % wt/wt
  total terpenes: 2.43 % wt/wt and 1.6 % wt/wt and 1.43 % wt/wt and 1.44 % wt/wt
Application of 1 mM or 4.25 mM
  total terpene content: increased
At both 1 mM and 10 mM
  Aboveground fresh weight and dried weight compared to the control plants: significantly reduced
